Source: patent US20130005783A1, “Prevention And Treatment Of Diseases Caused By Elevated Levels Of Deoxy-Sphingolipids” (priority 2010, published 2013)

Experiments:
[1] = system: mutated form of SPT (C133W); type: cell-based; conditions: HEK293 C133W; for SPT activity: fumonisin B1 24 h, 1 mM L-cycloserine, 10 mM D-serine
Protocol: Cells were cultivated in normal media without any supplementation (A) or in the presence of 10 mM L-alanine (B), 10 mM glycine (C); 1 mM L-cycloserine (D); 10 mM D-alanine (E), 10 mM D-serine (F) or 10 mM L-serine (G).
HEK293 cells expressing a mutated form of SPT (C133W) were cultured in the presence of various amino acids and structurally related compounds. The cells were additionally treated with fumonisin B1 (see Example 1).
(§1) A further suitable method to screen for putative suppressors of deoxy-sphingolipid synthesis is as follows: a suitable cell line (e.g. HEK293) is cultured to approximately 60% confluency. The compound of interest is added to the culture medium in the appropriate concentration. Additionally, fumonisin B1 (FB1) is added to a final concentration of 10 μg/ml. After 24 h of incubation, cells are washed with PBS and harvested and an aliquot separated for cell counting. The remaining cells are pelleted and extracted in 500 μl extraction buffer (4 volumes MeOH/KOH+1 volume CHCl3), including an internal reference standard (e.g. deuteriated (d7)-sphinganine, (d7)-sphingosine or synthetic C17-sphingosine). Subsequently, 500 μl chloroform, 500 μl alkaline water and 100 μl 2N ammonia are added, followed by centrifugation (120000×g, 5 min). The upper phase is discarded and the organic phase washed twice with alkaline water. Lipids are dried under a stream of N2 and resolubilized in 50 μl ethanol (95%) and 100 μl methanol:H2O (85:15). The lipids are finally derivatized with o-phthaldialdehyde (OPA) and analysed by LC-MS. OPA derivates are separated on a C18 column. Mobile phase is ammonium acetate (5 mM):methanol=17:83 (25 min, isocratic), followed by a wash with 100% methanol (5 min) at a flow rate of 300 μl/min. Deoxysphingoid bases are ionised by APCI (atmospheric pressure chemical ionisation) and analysed in positive ion mode.

[2] = system: cellular SPT activity; experiment: Accumulation of sphingoid bases in HEK 293 wt cells treated with fumonisin B1 and cytostatics; type: cell-based; conditions: for DoxSA generation / SA (sphinganine) generation / accumulation: fumonisin B1, increasing concentrations of drug
Protocol: HEK 293 wt cells were cultured in the presence of increasing concentrations of paclitaxel (FIG. 6-I), etoposide (FIG. 6-II) and thalidomide (FIG. 6-III). The cells were additionally treated with fumonisin B1 (FB1), an inhibitor of ceramide synthase (CerS). The inhibition of CerS leads to an intracellular accumulation of the SPT products, namely sphinganine, deoxy-sphinganine. Since the SPT reaction is the rate limiting step in the de novo synthesis pathway, the amount of accumulated sphingoid bases is a measure of the cellular SPT activity. […] Etoposide increased sphinganine and DoxSA production. […] In contrast to paclitaxel and etiposide, the non-cytostatic thalidomide (FIG. 6-III) had no effect.
as §1

[3] = system: HSAN1 mice; experiment: L-serine or L-alanine enriched diet in transgenic HSAN1 mice (C133W SPTLC1); type: in vivo
Description: Mice received an L-serine or L-alanine enriched diet (10% L-Serine or L-Alanine w/w) for a period 15 days. […] Plasma deoxy-sphingolipid levels remained low during the whole treatment period (A, pmol/ml; B, days).
Transgenic mice expressing a mutant (C133W) form of SPTLC1 develop a peripheral neuropathy within 10 to 15 months of life. The development of a neuropathy in these HSAN1 mice correlates with highly elevated deoxy-sphinganine and deoxy-sphingosine plasma levels.

[4] = system: HSAN1 patients; experiment: Oral L-serine supplementation in HSAN1 patients (C133Y); type: in vivo, humans
Protocol: (A, weeks, B, μM; C, treatment phase; D, washout phase).
14 HSAN1 patients having the C133Y mutation received an oral serine supplementation for a period of 10 weeks followed by a wash out period of two weeks (FIG. 9). Patients were separated in a low dose and a high dose treatment group (n per group=7) receiving either 5 g or 10 g L-serine/day. The plasma sphingolipid composition was analyzed by an acid/base hydrolysis to release the free sphingoid bases. […] In both groups an up to 80% reduction in plasma deoxy-sphingolipid levels was observed. […] During the wash out phase the plasma deoxy-sphingolipid levels raised again.

[5] = system: mutant forms of SPT (C133W, C133Y, V144D); experiment: DoxSA formation in Hek cells expressing mutant forms of SPT at increasing L-serine in the presence of FB1; type: cell-based; conditions: HSAN1 mutants C133W, increasing L-serine medium concentrations, L-alanine constant at 2 mM
Protocol: (§2) HEK293 wt cells (FIG. 7-I) and Hek cells expressing various mutant forms of SPT (wt, C133W, C133Y, V144D) (FIG. 7-II) were cultured at various L-serine:L-alanine ratios in the presence of FB1 (see above Example 1). […] In the second approach L-alanine concentrations were held constant at 2 mM.
as §1, with “The upper phase is discarded and the organic phase washed twice with alkaline water. Lipids are dried under a stream of N2 and resolubilized in 50 μl ethanol (95%) and 100 μl methanol:H2O (85:15).” left out, “OPA derivates are separated on a C18 column. Mobile phase is ammonium acetate (5 mM):methanol=17:83 (25 min, isocratic), followed by a wash with 100% methanol (5 min) at a flow rate of 300 μl/min.” left out

[6] = system: SPT (wt enzyme); experiment: DoxSA formation in HEK293 wt cells at various L-serine:L-alanine ratios in the presence of FB1; type: cell-based; conditions: increasing L-serine medium concentrations, varying L-alanine concentrations
Protocol: as §2
as §1, with “The upper phase is discarded and the organic phase washed twice with alkaline water. Lipids are dried under a stream of N2 and resolubilized in 50 μl ethanol (95%) and 100 μl methanol:H2O (85:15).” left out, “OPA derivates are separated on a C18 column. Mobile phase is ammonium acetate (5 mM):methanol=17:83 (25 min, isocratic), followed by a wash with 100% methanol (5 min) at a flow rate of 300 μl/min.” left out

[7] = fumonisin B1, 10 mM supplementation

N[C@H](CO)C(=O)O [D-serine]
SPT activity [1]: generally inhibitory

COc1cc([C@@H]2c3cc4c(cc3[C@@H](O[C@@H]3O[C@@H]5CO[C@@H](C)O[C@H]5[C@H](O)[C@H]3O)[C@H]3COC(=O)[C@H]23)OCO4)cc(OC)c1O [Etoposide, etoposide]
concentration at which DoxSA showed a maximum ([2]; fumonisin B1): 0.5 mM | DoxSA generation [2]: increased | SA (sphinganine) generation / accumulation [2]: increased in a dose dependant manner

C[C@H](N)C(=O)O [L-alanine, reference compound]
formation of deoxy-sphinganine [1, 7]: increased formation | plasma deoxy-sphingolipid levels ([3]; enriched diet): increased | time to first neuropathic symptoms ([3]; enriched diet): 2-3 months

N[C@@H](CO)C(=O)O [L-serine]
formation of sphinganine [1, 7]: stimulates the formation | generation of deoxy-sphingoid bases [1, 7]: suppresses | difference between low and high dose group ([4]; 5 g vs 10 g/day, plasma deoxy-sphingolipid levels): No significant differences | time to maximal suppression of plasma deoxy-sphinganine and deoxy-sphingosine levels ([4]; HSAN1 patients C133Y, oral 5 g or 10 g/day): 6 weeks | reduction in plasma deoxy-sphingolipid levels ([4]; HSAN1 patients C133Y, oral 5 g or 10 g/day, 10 weeks, both groups): up to 80% | deoxy-sphingolipid plasma levels during treatment period ([4]; HSAN1 patients C133Y, oral treatment over ten weeks, until end of treatment): remained suppressed | plasma deoxy-sphingolipid levels during wash out phase ([4]; two weeks wash out after 10 weeks of treatment): raised again | DoxSA formation [5]: significant decrease | DoxSA formation ([5]; listed as L-erine): efficiently inhibited | plasma deoxy-sphinganine and deoxy-sphingosine levels vs untreated mice ([3]; enriched diet 10% w/w for 15 days, 3-4 days after start of treatment): remarkable reduction | reduction in plasma deoxy-sphinganine and deoxy-sphingosine levels ([3]; enriched diet 10% w/w, after 4-5 days of treatment): up to 80% | development of neuropathy ([3]; enriched diet, until end of study (18 months), untreated controls neuropathic after 8 to 9 months): did not develop a neuropathy | DoxSA formation [6]: significant decrease

CC(=O)O[C@H]1C(=O)[C@@]2(C)[C@H]([C@H](OC(=O)c3ccccc3)[C@]3(O)C[C@H](OC(=O)[C@H](O)[C@@H](NC(=O)c4ccccc4)c4ccccc4)C(C)=C1C3(C)C)[C@]1(OC(C)=O)CO[C@@H]1C[C@@H]2O [Paclitaxel, paclitaxel]
DoxSA generation [2]: stimulated DoxSA generation in a dose dependant manner | SA (sphinganine) generation / accumulation [2]: not altered

N[C@@H]1CON=C1O [cycloserine, reference compound]
SPT activity [1]: generally inhibitory

NCC(=O)O [glycine, reference compound]
formation of deoxymethyl-sphinganine [1, 7]: stimulate the formation

O=C1CCC(N2C(=O)c3ccccc3C2=O)C(=O)N1 (centres unmarked) [thalidomide]
DoxSA generation [2]: no effect | SA (sphinganine) generation / accumulation [2]: no effect
